Test results as given in patent US5506239A, “Carbostyril derivative and platelets aggregation inhibitory agent” (Otsuka Pharmaceutical Co., Ltd., priority 1991, dated 1996).
pIC50: −log10 of the molar value.

Key:
platelets [1] = test: Platelets aggregation inhibitory activity (method of Born et al.), ADP-induced, human PRP (Pharmacological Test I); type: cell-based, man; settings: Homo sapiens, Platelet, 7.5 μM ADP, 37° C., read-out: IC50 ADP (50% platelets aggregation inhibition)
Procedure: (§1) The platelets aggregation inhibitory activity of each test compound was measured by the method of Born et al. [J. Physiol., London, 162, 67 (1962)], using Platelets Aggregation Tracer manufactured by Nikoh Bioscience Co., Ltd.
(§2) 9 volumes of a blood collected from person was mixed with 1 volume of a 3.8% aqueous sodium citrate solution. Part of the mixture was subjected to centrifugation at 1,100 rpm for 10 minutes to obtain a platelet rich plasma (PRP). The remainder of the mixture was also subjected to centrifugation at 3,000 rpm for 10 minutes to obtain a platelet poor plasma (PPP).
(§3) The number of platelets in the PRP was measured using Coulter Counter manufactured by Coulter Electronics Inc. Then, the PRP was diluted with the PPP so that the number of platelets in the dilution became 300,000, whereby a PRP solution was prepared.
(§4) 200 μl of this PRP solution and 2 ml of a solution containing a test compound at a given concentration were placed in an aggregation measurement cell and heated at 37° C. for 1 minute. Thereto was added 20 μl of adenosine diphosphate (ADP manufactured by Sigma Co.) or a collagen suspension (Collagen Reagent manufactured by Horm, Hormon-Chemie, Gmbh) to induce aggregation of platelets. The resulting mixture in the cell was measured for change of transmittance, after which a platelets aggregation curve was prepared. Incidentaly, the concentration of ADP or collagen was selected so that the final Concentration became 7.5 μM or 20 μg/ml.
(§5) Using the platelets aggregation curve, there was calculated a maximum aggregation rate (MAR) of platelets using the followoing formula: […]
(§6) wherein a represents a transmittance of the PRP obtained in the same manner; c represents a transmittance of the PPP obtained in the same manner; and b represents a transmittance at the maximum change, of the PRP solution containng the test compound and the aggregation inducer.
(§7) A MAR was also calculated as above, for the control containing no test compound.
(§8) Using the above two MARs, there were calculated platelets aggregation inhibitions (%) of each test compound at various concentrations using the following formula.
(§9) Inhibition=[1-(MAR of PRP solution containing test compound)/(MAR of PRP
(§10) solution containing no test compound)]×100
(§11) Using the above obtained platelets aggregation inhibitions (%) of each test compound at various concentrations, there was calculated a concentration (IC50) of each test compound for 50% platelets aggregation inhibition.

platelets [2] = test: Platelets aggregation inhibitory activity (method of Born et al.), collagen-induced, human PRP (Pharmacological Test I); type: cell-based, man; settings: Homo sapiens, Platelet, 20 μg/ml collagen, 37° C., read-out: IC50 Collagen (50% platelets aggregation inhibition)
Procedure: as §1, §2, §3, §4, §5, §6, §7, §8, §9, §10, §11

mongrel dogs = settings: dog, in vivo, 300 mg/kg
Procedure: The heart rate-increasing activity and blood pressure hypotensive activity of each test compound were measured by the following method, using mongrel dogs each weighing 10-20 kg. That is, said dogs were anesthesized by intravenous injection of pentobarbital sodium, then fixed at the back, and tested under artificial respiration. The blood pressures of the dogs were measured by a blood pressure measuring transducer (P23×L manufactured by Gould Statham Instruments, Inc.) via cannula inserted into the femoral artery. The heart rates of the dogs were measured using the pulse wave of the blood pressure of each dog, via a tachometer. The signals of these testng apparatuses were recorded on a thermal pen-type recorder (Recti-Horize 8K manufactured by Nippon Denki-San-ei Sha).
Some of the compounds obtained in the above Examples were used as test compounds. […] Then, the heart rate of each dog was measured according to the above method and a maximum change in heart rate was calculated.

platelets [3] = test: Inhibition of collagen-induced platelets adhesion, washed platelets (Pharmacological Test III); type: cell-based, man; settings: Platelet; dose 3 μM; 50 μg/ml collagen; human washed platelets; read-out: Inhibition (%) of collagen-induced platelets adherence
Procedure: A blood was collected from a healthy person with normal platelets function by addition of 0.1% disodium ethylenediaminetetraacetate (EDTA.4Na) and immediately subjected to separation of a platelet rich plasma (PRP). The PRP was washed twice with a Tyrode's buffer solution (50mM TRIS, 0.1% EDTA, Ca (-), Mg (-), 0.14% BSA added, pH=7.4), and suspended in the buffer solution so that the number of platelets in the resulting suspension became 300, 000/ml, to obtain a platelets suspension (EDTA-WP). 4 mg of Type I manufactured by Sigma Co., derived from a bovine skin was dissolved in 0.25 ml of acetic acid (83.5 mM); 8 ml of distilled water was added thereto; an ultrasonic wave was applied to the mixture at 4° C. for 2 minutes; 5 ml of the supernatant liquid was separated as a collagen solution. Each test compound was dissolved in dimethylformamide (DMF) so as to give a concentration of at least […] when possible, to prepare a test compound solution. The change in turbidity of platelets suspension was recorded as a change in transmitted light emitted from a glass cell containing the suspension, using a platelets aggregation tracer manufactured by Nikoh Bioscience K.K., generally used in the test of platelets aggregation function, whereby the adherence of platelets was measured. Incidentally, in recoridng the change in transmitted light, the sensitivity of the recorder was 5 times as high as that used generally. 200 μl of the EDTA-WP was placed in a glass cell exclusively used for the above platelets aggregation tester. Further, 1 μl of the test compound solution was added. The mixture was incubated at room temperature for 5 minutes. Then, the cell was set in the platelets aggregation tracer and was allowed to stand for 1 minute until the temperature became 37° C. Thereafter, about 20 μl (50 μg/ml) of the collagen solution was added, and the adherence of platelets were measured.
The inhibitions (%) of collagen-induced platelets adhesion by each test compound at various concentrations were calculated using the following formula.
Inhibition (%)=[1-(platelets adherence when test compound added)/
(platelets adherence when no test compound added)]×100

[4] = biological target: T1, cyclic AMP phosphodiesterase (Homo sapiens, UniProt Q14432); test: Cyclic AMP phosphodiesterase inhibitory activity, enzyme from human platelets (Pharmacological Test IV); type: biochemical, man; settings: 0.4 μM cyclic AMP substrate, 30° C., 20 minutes, human platelet enzyme; read-out: IC50 (50% phosphodiesterase inhibition concentration)
T1 construct: the resulting supernatant liquid was used as a crude enzyme solution; from tissue; host or cells: human platelets (from platelet-rich plasma)
T1 sequence (Q14432 whole entry): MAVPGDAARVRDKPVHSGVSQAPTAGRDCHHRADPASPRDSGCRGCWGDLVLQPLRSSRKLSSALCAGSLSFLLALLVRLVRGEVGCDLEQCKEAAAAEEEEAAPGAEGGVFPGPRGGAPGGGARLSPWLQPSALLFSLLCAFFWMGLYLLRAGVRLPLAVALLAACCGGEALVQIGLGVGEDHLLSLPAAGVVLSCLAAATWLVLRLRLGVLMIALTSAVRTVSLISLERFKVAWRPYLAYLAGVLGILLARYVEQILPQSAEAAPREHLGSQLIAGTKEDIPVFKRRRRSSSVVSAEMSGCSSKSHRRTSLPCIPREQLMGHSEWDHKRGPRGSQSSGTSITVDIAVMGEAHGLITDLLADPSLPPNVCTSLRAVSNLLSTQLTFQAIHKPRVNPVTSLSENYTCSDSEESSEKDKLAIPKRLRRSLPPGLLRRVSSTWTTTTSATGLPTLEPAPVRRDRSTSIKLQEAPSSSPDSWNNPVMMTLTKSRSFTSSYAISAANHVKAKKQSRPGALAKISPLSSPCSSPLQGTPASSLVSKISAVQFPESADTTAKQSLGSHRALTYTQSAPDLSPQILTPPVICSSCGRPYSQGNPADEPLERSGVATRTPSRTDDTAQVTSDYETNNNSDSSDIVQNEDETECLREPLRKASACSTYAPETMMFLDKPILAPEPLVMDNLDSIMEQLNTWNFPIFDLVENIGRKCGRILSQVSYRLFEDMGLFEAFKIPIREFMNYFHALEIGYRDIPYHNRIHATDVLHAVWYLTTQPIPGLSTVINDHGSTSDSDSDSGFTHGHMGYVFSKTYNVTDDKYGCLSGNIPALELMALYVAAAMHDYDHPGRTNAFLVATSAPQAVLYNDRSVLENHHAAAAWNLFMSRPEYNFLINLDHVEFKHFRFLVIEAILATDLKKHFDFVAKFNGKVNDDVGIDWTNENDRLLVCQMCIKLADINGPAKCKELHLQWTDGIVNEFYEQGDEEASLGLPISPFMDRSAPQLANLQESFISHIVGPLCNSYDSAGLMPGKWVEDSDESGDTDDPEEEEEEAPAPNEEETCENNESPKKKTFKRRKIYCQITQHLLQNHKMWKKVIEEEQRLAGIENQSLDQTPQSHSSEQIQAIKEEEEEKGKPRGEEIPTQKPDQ

O=c1ccc2cc(OCCCS(=O)(=O)N(CCN3CCC(O)CC3)C3CCCCCCC3)ccc2[nH]1 [Example 85] was tested, and the pIC50 (platelets [1]) was 5.68, the pIC50 (platelets [2]) was 6.24 and the “Maximum change in heart rate” value (mongrel dogs) was 13 beats/minute. The inhibition at 3 µM (platelets [3]) was 50% and the pIC50 [4] was over 7.00.
